# Experimental data reported in US6737547B1, “Compositions containing and methods of using N-acyl-1H-aminoindenes” (Teva Pharmaceutical Industries, Ltd., priority 1998, dated 2004).
# “Also recorded” adds a separate entry of the source.
# Tests used:
# [1] = tested on: mice; assay: Protection against hypobaric hypoxia in mice (survival time); format: in vivo; conditions: for response vs control in vivo at 12.5 mg/kg / response vs control in vivo at 25 mg/kg / response vs control in vivo at 50 mg/kg / response vs control in vivo at 100 mg/kg: Mus musculus, ip, 200 mm Hg, read-out: survival ± SD (survival time as percent of vehicle control); for activity in the hypobaric hypoxia model (in words): dose of 25 mg/kg, listed in decreasing order of activity
# Protocol: The apparatus used consisted of two chambers A and B connected by a three-way valve. […] The air in chamber A was evacuated to a pressure of 100 mm Hg. The three way valve was turned to disconnect chamber B from room air and to connect it to chamber A. At this point, the pressure in B fell to 200 mm Hg. Survival of residing mice was determined up to a maximum exposure of 15 minutes, and is defined as the time between onset of hypoxia to cessation of respiration.
# [2] = tested on: Male ICR mice; assay: Protection against maximal electroshock-induced seizure in mice (MES); format: in vivo; conditions: for protected/total: electroshock 30 min after medication; for ED50: Mus musculus, median effective dose, maximal electroshock, mice, ip, read-out: ED50 (95% confidence limits)
# Protocol: Male ICR mice were used. The rodent shocker apparatus consisted of a shock stimulator Type 221 (Hugo Sachs Elektronik, Germany) with a current setting for mice. Thirty minutes after medication with a given agent, given intraperitoneally as a fine slurry in methyl cellulose 0.5% in distilled water, each mouse received an electroshock of 50 mA for 0.2 seconds, applied to the eye, at a maximum of 250 V/300 mA. The ratio of mice protected against seizure in a group of four per dose was determined and used as an indicator of neuroprotective activity.
# Protection of mice against seizures induced by electroshock is a widely used model to probe for potential anti-epileptic agents (see, for example, Y. I. Sohn et al., Anticonvulsant properties of diphenylthiohydantoin, Arch. Int. Pharmacodyn. 188, 284-289, 1970).
# [3] = tested on: guinea-pig ileal preparation; assay: Potentiation of adenosine depression of contractile response, procedure II (after exposure to and washout of test compound); conditions: for Mean potentiation ratio ± SEM / potentiation ratio, Max / potentiation ratio, Min: adenosine 0.4 uM, after exposure and washout, 5, 50-400, 6, 50-400; for Mean potentiation ratio ± SEM: drug conc. (uM): 3, 100-400, 2a, 1000, 2, 1000; for potentiation ratio, Max / potentiation ratio, Min: drug conc. range (uM): 3, 100-400
# Protocol: (§1) The test system used is the intramural electrically-stimulated guinea-pig ileal preparation as described in EXAMPLE 10. Adenosine added to the organ bath in rising concentrations in the range 0.1-10 uM causes a dose-dependent decrease in contraction amplitude, with an EC50 of about 1 uM.
# (§2) The calculated effect is the product of the responses to each of the two agents when applied separately. The potentiation ratio is defined as (100%found)/(100-% calculated).
# In all cases, the difference between the calculated and observed response was statistically significant. […] In procedure II, the dose response to adenosine was determined before and after exposure of the preparation to the test drug and washout of the test drug from the organ bath. In this case, significant potentiation of adenosine was observed even though the test drug had been washed out from the organ bath. In fact, the potentiation ratio, as defined earlier, was even higher than found in the presence of the test compounds (Procedure I), reaching very high values.
# [4] = tested on: guinea-pig ileal preparation; assay: Potentiation of adenosine depression of contractile response, procedure I (in the presence of test compound); conditions: adenosine 0.4 uM; drug conc. range (uM): 3, 20-400; 5, 50-200; 6, 25-50; drug present
# Protocol: as §1
# In procedure I, the effect of a given concentration of adenosine, usually, 0.2 or 0.4 uM was first determined and related to the full contractile response in the absence of adenosine. […] The amplitude of the contractile response was recorded. Now, adenosine was added at the same dose initially used, and the effect of adenosine in the presence of the test compound was recorded.
# as §2
# [5] = tested on: guinea-pig ileal preparation; assay: Decrease in contractile response of guinea-pig ileum evoked by the nicotinic agonist DMPP; conditions: for EC50: Cavia porcellus, calculated from logit plot, inhibiting contractile response to 1 uM DMPP, read-out: EC50
# Protocol: A strip of guinea-pig ileum is mounted in an organ bath, as described in EXAMPLE 10. 1-N,N-dimethyl-4-N-phenylpiperazinium chloride (DMPP) is added at intervals of about 15 minutes in order of increasing dose, to cause bath concentrations in the range of 0.1-10 uM. A brief contraction follows each addition. The amplitude of the contractile response is used to derive a dose-response relationship for DMPP. Usually, a bath concentration of 1 uM DMPP will give 90-100% of the maximal response obtainable in the given preparation. One of two procedures follows this: A dose-response of a test compound is determined in the presence of a fixed concentration of DMPP. This is done by incubating the preparation with a given concentration of the test compound, then challenging it with DMPP at a dose to give 1 uM bath concentration. The procedure is repeated with the next higher concentration of the test compound. In the other procedure, the dose-response of DMPP is determined in the presence of a fixed bath concentration of the test compound, usually 200 uM.
# When intramural nerve stimulation occurs, as in the case of electrical stimulation, the contractile effector substance is released from nerve endings by a depolarization wave that propagates along the parasympathetic nerve fiber until its junction with smooth muscle of the ileum. An alternative but not equivalent procedure is stimulation of parasympathetic ganglia by an appropriate nicotinic agonist such as 1-N,N-dimethyl-4-N-phenylpiperazinium chloride (DMPP). Stimulation of parasympathetic ganglia causes a depolarization wave in the post-ganglionic nerve fiber which terminates on the smooth muscle of the ileum, causing release of contractile effector and contraction (see, for example, E. S. Vizi, Acetylcholine release from guinea-pig ileum by parasympathetic ganglion stimulants and gastrin-like polypeptides, Br. J. Pharmacol. 47, 765-77. 1973).
# [6] = tested on: guinea-pig ileal preparation; assay: Decrease of contractile response to intramural electric stimulation in the guinea-pig ileal preparation; conditions: Cavia porcellus; calculated from logit plot; contractile response to intramural electric stimulation; read-out: EC50
# Protocol: A 2 cm-long section of the distal ileum freshly dissected from a CO2-asphyxiated guinea pig is cleaned from adhering tissue and mounted in an organ bath (5 mL) containing Krebs solution constantly aerated with oxygen containing 5% CO2. The initial tension is adjusted at 5 g per strip. Tension is monitored isometrically with a Grass FTC3 force transducer. Intramural electric stimulation is delivered through a platinum electrode from a Grass stimulator model s88, s44 at supramaximal voltage (V) and a frequency of 0.1/s. The preparation develops a rhythmic contractile response at maximal amplitude which is stable over time. Addition of test drugs to the organ bath causes a dose-dependent decrease in contraction amplitude which is stable over 5-8 minutes. The relative decrease in contractile response indicates the relative potency of a given agent in a series.
# Blocking or decreasing neural excitability evoked by programmed electric stimulation is another indicator of a compound's potential neuroprotective activity. A convenient test system uses the guinea-pig ileal preparation mounted in an organ bath (see, for example, Eiichi Hayashi et al., European J. Pharmacol 48, 297-307, 1978).
Structure (SMILES),response vs control in vivo at 12.5 mg/kg ([1]; mice),response vs control in vivo at 25 mg/kg ([1]; mice),"response vs control in vivo at 50 mg/kg ([1]; 50 mg/kg, mice)",response vs control in vivo at 100 mg/kg ([1]; mice),activity in the hypobaric hypoxia model (in words) [1],protected/total ([2]; 100 mg/kg intraperitoneally),ED50 [2],Mean potentiation ratio ± SEM [3],"potentiation ratio, Max [3]","potentiation ratio, Min [3]",Mean potentiation ratio ± SEM [4],"potentiation ratio, Max [4]","potentiation ratio, Min [4]",EC50 [5],EC50 [6],other results
"O=CNC1=CCc2ccccc21 [Compound 5, N-Formyl-3-amino-1H-indene]",248 ± 154%,586 ± 253%,331 ± 272%,489 ± 286%,strong activity,4/4,79.4 mg/kg,5.55 ± 1.0,7.28,3.78,2.19 ± 0.36,2.60,1.47,34 µM,188 µM,protected/total ([2]; 50 mg/kg intraperitoneally): 0/4; protected/total ([2]; 75 mg/kg intraperitoneally): 1/4; potentiating effect retained after wash-out from the organ bath (in words) ([3]; guinea pig ileal preparation after wash-out): prolonged potentiating effect
"CC(=O)NC1=CCc2ccccc21 [Compound 3, N-Acetyl-3-amino-1H-indene]",637 ± 341%,735 ± 238%,879 ± 237%,703 ± 242%,strong activity,1/4,116 mg/kg,1.54 ± 0.25,1.99,1.14,1.49 ± 0.075,1.74,1.29,170 µM,251 µM,"protection over 2a (control) ([1]; 50 mg/kg, mice): 1000%; side effects ([1]; 50 mg/kg, mice): minor and transient side effects such as slight sedation, hypopnea and defecation; protected/total ([2]; 125 mg/kg intraperitoneally): 2/4; protected/total ([2]; 150 mg/kg intraperitoneally): 4/4; reversibility of the depression by rising concentrations of DMPP ([5]; test compound at 200 uM fixed bath concentration, FIG. 8): not reversible; also recorded: irreversibly blocked"
